US20160122342A1, “ENHANCER OF ZESTE HOMOLOG 2 INHIBITORS” (GLAXOSMITHKLINE INTELLECTUAL PROPERTY (NO.2) LIMITED, priority 2013, published 2016)

Target: T1, EZH2 within the PRC2 complex (Homo sapiens, UniProt Q15910)
T1 construct: FLAG; made in house; host or cells: Sf9 cells
Assay: Assay Protocol 2: EZH2 methyltransferase scintillation proximity assay, biotinylated histone H3 peptide substrate
Type: biochemical
Conditions: SPA, 3H-SAM, biotinylated unmethylated histone H3K27 peptide substrate, 5-member PRC2 complex
Protocol: Compounds contained herein were evaluated for their ability to inhibit the methyltransferase activity of EZH2 within the PRC2 complex. […] The peptides were captured on streptavidin-coated SPA beads and the resulting signal was read on a ViewLux plate reader. • 4. Prepare 10 mM stock of compounds from solid in 100% DMSO. • 5. […] Dispense 10 nL of compound from the dilution plate into reaction plates (Corning, 384-well polystyrene NBS, Cat#3673). Prepare the following solutions: • 7. 1× Base Buffer, 50 mM Tris-HCl, pH 8, 2 mM MgCl2: Per 1 L of base buffer, combine 1 M Tris-HCl, pH 8 (50 mL), 1 M MgCl2 (2 mL), and distilled water (948 mL). • 8. 1× Assay Buffer: Per 10 mL of 1× Assay Buffer, combine 1× Base Buffer (9.96 mL), 1 M DTT (40 uL), and 10% Tween-20 (1 uL) to provide a final concentration of 50 mM Tris-HCl, pH 8, 2 mM MgCl2, 4 mM DTT, 0.001% Tween-20. • 9. 2× Enzyme Solution: […] SPA Bead Solution: Per 1 mL of SPA Bead Solution, combine Streptavidin coated SPA beads (PerkinElmer, Cat# RPNQ0261, 40 mg) and 1× Assay Buffer (1 mL) to provide a working concentration of 40 mg/mL. • 11. 2× Substrate Solution: Per 10 mL of 2× Substrate Solution, combine 40 mg/mL SPA Bead Solution (375 uL), 1 mM biotinylated histone H3K27 peptide (200 uL), 12.5 uM 3H-SAM (240 uL; 1 mCi/mL), 1 mM cold SAM (57 uL), and 1× Assay Buffer (9.13 mL) to provide a final concentration of 0.75 mg/mL SPA Bead Solution, 10 uM biotinylated histone H3K27 peptide, 0.15 uM 3H-SAM (˜12 uCi/mL 3H-SAM), and 2.85 uM cold SAM. • 12. 2.67× Quench Solution: Per 10 mL of 2.67× Quench Solution, combine 1× Assay Buffer (9.73 mL) and 10 mM cold SAM (267 uL) to provide a final concentration of 100 uM cold SAM. • 3. […] Dispense 5 uL/well of 1× Assay Buffer to column 18 (low control reactions). • 11. Dispense 5 uL/well of 2× Substrate Solution to columns 1-24 (note: substrate solution should be mixed to ensure homogeneous bead suspension before dispensing into matrix reservoir). • 12. Dispense 5 uL/well of 2× Enzyme Solution to columns 1-17, 19-24. • 13. Incubate the reaction for 60 min at room temperature. • 5. Dispense 6 uL/well of the 2.67× Quench Solution to columns 1-24. • 6. Seal assay plates and spin for ˜1 min at 500 rpm. • 7. Dark adapt plates in the ViewLux instrument for 15-60 min. • 2. Read the assay plates on the Viewlux Plate Reader utilizing the 613 nm emission filter or clear filter (300 s exposure). Reagent addition can be done manually or with automated liquid handler. Percent inhibition was calculated relative to the DMSO control for each compound concentration and the resulting values were fit using standard IC50 fitting parameters within the ABASE data fitting software package.

T1 sequence (Q15910 whole entry): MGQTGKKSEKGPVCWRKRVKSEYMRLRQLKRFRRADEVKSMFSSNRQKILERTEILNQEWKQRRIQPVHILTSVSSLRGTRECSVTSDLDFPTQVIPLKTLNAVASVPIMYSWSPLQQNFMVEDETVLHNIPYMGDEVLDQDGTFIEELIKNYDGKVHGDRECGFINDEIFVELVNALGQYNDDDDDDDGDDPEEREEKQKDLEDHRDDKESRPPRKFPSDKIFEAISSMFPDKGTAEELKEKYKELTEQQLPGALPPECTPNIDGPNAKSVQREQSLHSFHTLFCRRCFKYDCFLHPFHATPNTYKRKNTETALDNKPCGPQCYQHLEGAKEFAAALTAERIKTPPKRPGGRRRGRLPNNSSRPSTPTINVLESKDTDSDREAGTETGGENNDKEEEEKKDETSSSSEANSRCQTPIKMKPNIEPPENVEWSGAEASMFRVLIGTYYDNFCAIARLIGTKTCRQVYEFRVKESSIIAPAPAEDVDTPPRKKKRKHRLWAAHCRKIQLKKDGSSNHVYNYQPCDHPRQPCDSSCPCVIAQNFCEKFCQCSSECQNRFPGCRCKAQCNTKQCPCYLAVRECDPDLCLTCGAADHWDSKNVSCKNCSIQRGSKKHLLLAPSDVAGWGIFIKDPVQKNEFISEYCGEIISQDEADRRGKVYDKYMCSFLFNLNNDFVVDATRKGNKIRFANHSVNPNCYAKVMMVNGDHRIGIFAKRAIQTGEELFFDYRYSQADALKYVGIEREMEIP
T1 sequence (O75530 whole entry partner): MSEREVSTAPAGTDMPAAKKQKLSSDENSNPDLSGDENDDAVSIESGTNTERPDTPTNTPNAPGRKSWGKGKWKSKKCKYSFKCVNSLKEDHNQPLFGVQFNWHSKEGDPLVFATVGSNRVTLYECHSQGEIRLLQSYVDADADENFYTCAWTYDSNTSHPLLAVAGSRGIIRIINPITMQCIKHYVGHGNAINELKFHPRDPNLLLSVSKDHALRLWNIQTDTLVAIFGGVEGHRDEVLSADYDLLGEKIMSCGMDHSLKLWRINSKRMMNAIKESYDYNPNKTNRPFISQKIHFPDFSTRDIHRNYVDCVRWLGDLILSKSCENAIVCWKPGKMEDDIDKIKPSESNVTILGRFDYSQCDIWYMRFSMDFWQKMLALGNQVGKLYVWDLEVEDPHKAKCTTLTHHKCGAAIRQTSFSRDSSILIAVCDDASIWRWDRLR
T1 sequence (Q15022 whole entry partner): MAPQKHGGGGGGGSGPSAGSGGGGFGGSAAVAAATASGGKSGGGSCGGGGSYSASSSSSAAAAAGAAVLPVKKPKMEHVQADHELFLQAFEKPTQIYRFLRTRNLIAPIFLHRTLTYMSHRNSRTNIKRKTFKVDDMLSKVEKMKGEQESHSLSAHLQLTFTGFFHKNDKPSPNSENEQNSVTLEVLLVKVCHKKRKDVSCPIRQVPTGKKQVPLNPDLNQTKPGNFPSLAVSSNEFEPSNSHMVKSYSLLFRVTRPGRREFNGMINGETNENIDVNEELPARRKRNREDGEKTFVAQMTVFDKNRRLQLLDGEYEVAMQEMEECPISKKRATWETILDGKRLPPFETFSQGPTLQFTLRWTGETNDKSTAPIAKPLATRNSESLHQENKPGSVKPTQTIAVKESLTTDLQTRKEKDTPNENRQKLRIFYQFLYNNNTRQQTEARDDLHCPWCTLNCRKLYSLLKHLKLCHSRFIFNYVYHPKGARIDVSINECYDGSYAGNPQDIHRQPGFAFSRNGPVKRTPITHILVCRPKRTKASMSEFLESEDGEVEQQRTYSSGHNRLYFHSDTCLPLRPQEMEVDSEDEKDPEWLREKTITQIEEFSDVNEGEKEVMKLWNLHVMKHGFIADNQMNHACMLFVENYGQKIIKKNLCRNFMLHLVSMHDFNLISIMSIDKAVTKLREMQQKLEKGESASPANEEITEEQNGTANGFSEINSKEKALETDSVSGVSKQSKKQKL
T1 sequence (Q09028 whole entry partner): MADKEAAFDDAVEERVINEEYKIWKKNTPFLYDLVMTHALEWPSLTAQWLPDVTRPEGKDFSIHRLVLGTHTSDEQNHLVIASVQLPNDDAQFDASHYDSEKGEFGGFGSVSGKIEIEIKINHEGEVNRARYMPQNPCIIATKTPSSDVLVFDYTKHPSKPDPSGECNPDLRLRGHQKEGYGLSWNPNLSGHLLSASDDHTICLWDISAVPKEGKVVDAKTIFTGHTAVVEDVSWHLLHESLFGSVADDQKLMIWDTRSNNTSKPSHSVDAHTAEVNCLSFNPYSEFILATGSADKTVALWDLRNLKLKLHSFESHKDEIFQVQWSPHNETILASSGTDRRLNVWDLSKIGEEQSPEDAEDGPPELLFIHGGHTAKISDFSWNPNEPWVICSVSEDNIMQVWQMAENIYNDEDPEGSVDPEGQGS
T1 sequence (Q6ZN18 whole entry partner): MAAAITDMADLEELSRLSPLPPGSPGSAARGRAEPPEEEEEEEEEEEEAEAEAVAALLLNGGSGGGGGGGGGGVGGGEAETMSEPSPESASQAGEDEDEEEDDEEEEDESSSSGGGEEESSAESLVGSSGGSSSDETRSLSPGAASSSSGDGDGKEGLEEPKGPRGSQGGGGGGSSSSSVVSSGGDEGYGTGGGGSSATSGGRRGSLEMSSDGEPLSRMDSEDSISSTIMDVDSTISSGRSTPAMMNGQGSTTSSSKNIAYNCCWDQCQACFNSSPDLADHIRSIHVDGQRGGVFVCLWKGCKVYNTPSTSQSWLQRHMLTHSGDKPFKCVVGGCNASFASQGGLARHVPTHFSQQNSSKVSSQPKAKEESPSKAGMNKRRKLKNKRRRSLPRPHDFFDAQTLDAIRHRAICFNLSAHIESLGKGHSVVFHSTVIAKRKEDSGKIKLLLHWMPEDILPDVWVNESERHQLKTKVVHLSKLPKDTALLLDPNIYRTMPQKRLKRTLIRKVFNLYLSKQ

Row | SMILES | IC50 [nM]
1 | CCN(c1cccc2c1C/C=C/CCc1cc(C)[nH]c(=O)c1CNC2=O)C1CCN(CC(F)(F)F)CC1 [Example 47, (E)-10-(ethyl(1-(2,2,2-trifluoroethyl)piperidin-4-yl)amino)-3-methyl-5,6,15,16-tetrahydrobenzo[c]pyrido[4,3-j][1]azacyclododecine-1,14(2H,9H)-dione] | 200
2 | CCN(c1cccc2c1C/C=C/CCc1cc(C)[nH]c(=O)c1CNC2=O)[C@H]1CC[C@H](N2CC(F)C2)CC1 [Example 76, (E)-10-(ethyl(trans-4-(3-fluoroazetidin-1-yl)cyclohexyl)amino)-3-methyl-5,6,15,16-tetrahydrobenzo[c]pyrido[4,3-j][1]azacyclododecine-1,14(2H,9H)-dione] | 126
3 | CCN(c1nccc2c1C/C=C/CCc1cc(C)[nH]c(=O)c1CNC2=O)C1CCOCC1 [Example 63, (E)-10-(ethyl(tetrahydro-2H-pyran-4-yl)amino)-3-methyl-5,6,15,16-tetrahydrodipyrido[3,4-c:3′,4′-j][1]azacyclododecine-1,14(2H,9H)-dione] | 251
4 | CCN(c1cccc2c1C/C=C/CCc1cc(C)[nH]c(=O)c1CNC2=O)[C@H]1CC[C@H](NCC(F)(F)F)CC1 [Example 58, (E)-10-(ethyl(trans-4-((2,2,2-trifluoroethyl)amino)cyclohexyl)amino)-3-methyl-5,6,15,16-tetrahydrobenzo[c]pyrido[4,3-j][1]azacyclododecine-1,14(2H,9H)-dione] | 158
5 | CCN(c1cccc2c1C/C=C/CCc1cc(C)[nH]c(=O)c1CNC2=O)[C@H]1CC[C@H](NCCC(F)(F)F)CC1 [Example 83, (E)-10-(ethyl(trans-4-((3,3,3-trifluoropropyl)amino)cyclohexyl)amino)-3-methyl-5,6,15,16-tetrahydrobenzo[c]pyrido[4,3-j][1]azacyclododecine-1,14(2H,9H)-dione] | 158
6 | Cc1cc2c(c(=O)[nH]1)CNC(=O)c1cccc(O[C@H]3CC[C@H](N(C)C)CC3)c1C/C=C\CC2 [Example 85, (Z)-10-((trans-4-(dimethylamino)cyclohexyl)oxy)-3-methyl-5,6,15,16-tetrahydrobenzo[c]pyrido[4,3-j][1]azacyclododecine-1,14(2H,9H)-dione] | 5010
7 | CCN(c1cccc2c1C/C=C/CCc1cc(C)[nH]c(=O)c1CNC2=O)[C@H]1CC[C@H](N(C)CC(F)F)CC1 [Example 57, (E)-10-((trans-4-((2,2-difluoroethyl)(methyl)amino)cyclohexyl)(ethyl)amino)-3-methyl-5,6,15,16-tetrahydrobenzo[c]pyrido[4,3-j][1]azacyclododecine-1,14(2H,9H)-dione] | 100
8 | Cc1cc2c(c(=O)[nH]1)CNC(=O)c1cccc(O[C@H]3CC[C@H](N(C)C)CC3)c1C/C=C/CC2 [Example 84, (E)-10-((trans-4-(dimethylamino)cyclohexyl)oxy)-3-methyl-5,6,15,16-tetrahydrobenzo[c]pyrido[4,3-j][1]azacyclododecine-1,14(2H,9H)-dione] | 200
9 | CCN(c1cccc2c1C/C=C/CCc1cc(C)[nH]c(=O)c1CNC2=O)[C@H]1CC[C@H](NCC(F)F)CC1 [Example 56, (E)-10-((trans-4-((2,2-difluoroethyl)amino)cyclohexyl)(ethyl)amino)-3-methyl-5,6,15,16-tetrahydrobenzo[c]pyrido[4,3-j][1]azacyclododecine-1,14(2H,9H)-dione] | 126
10 | CCN(c1cccc2c1C/C=C/CCc1cc(C)[nH]c(=O)c1CNC2=O)[C@H]1CC[C@@H](N2CCOCC2)CC1 [Example 86, (E)-10-(ethyl(cis-4-morpholinocyclohexyl)amino)-3-methyl-5,6,15,16-tetrahydrobenzo[c]pyrido[4,3-j][1]azacyclododecine-1,14(2H,9H)-dione] | 200
11 | CCN(c1cccc2c1C/C=C/CCCc1cc(C)[nH]c(=O)c1CNC2=O)[C@H]1CC[C@H](N(C)C)CC1 [Example 53, (E)-11-((trans-4-(dimethylamino)cyclohexyl)(ethyl)amino)-3-methyl-5,6,7,10,16,17-hexahydro-1H-benzo[c]pyrido[4,3-k][1]azacyclotridecine-1,15(2H)-dione] | 79

The remaining lines, values ahead:

Row | IC50 [nM] | SMILES
12 | 79 | CCN(c1cccc2c1C/C=C/CCc1cc(C)[nH]c(=O)c1CNC2=O)C1CC2(C1)CN(C)C2 [Example 72, (E)-10-(ethyl(2-methyl-2-azaspiro[3.3]heptan-6-yl)amino)-3-methyl-5,6,15,16-tetrahydrobenzo[c]pyrido[4,3-j][1]azacyclododecine-1,14(2H,9H)-dione]
13 | 158 | CCN(c1cccc2c1C/C=C/CCc1cc(C)[nH]c(=O)c1CNC2=O)[C@H]1CC[C@@H](O)CC1 [Example 78, (E)-10-(ethyl(cis-4-hydroxycyclohexyl)amino)-3-methyl-5,6,15,16-tetrahydrobenzo[c]pyrido[4,3-j][1]azacyclododecine-1,14(2H,9H)-dione]
14 | 126 | CCN(c1cccc2c1C/C=C/CCc1cc(C)[nH]c(=O)c1CNC2=O)[C@H]1CC[C@H](O)CC1 [Example 79, (E)-10-(ethyl(trans-4-hydroxycyclohexyl)amino)-3-methyl-5,6,15,16-tetrahydrobenzo[c]pyrido[4,3-j][1]azacyclododecine-1,14(2H,9H)-dione]
15 | 158 | CCN(c1cccc2c1C/C=C/CCc1cc(C)[nH]c(=O)c1CNC2=O)C1CC2(CCN(C)CC2)C1 [Example 69, (E)-10-(ethyl(7-methyl-7-azaspiro[3.5]nonan-2-yl)amino)-3-methyl-5,6,15,16-tetrahydrobenzo[c]pyrido[4,3-j][1]azacyclododecine-1,14(2H,9H)-dione]
16 | 316 | CCN(c1cccc2c1C/C=C/CCc1cc(C)[nH]c(=O)c1CNC2=O)C1CCN(N(C)C)CC1 [Example 65, (E)-10-((1-(dimethylamino)piperidin-4-yl)(ethyl)amino)-3-methyl-5,6,15,16-tetrahydrobenzo[c]pyrido[4,3-j][1]azacyclododecine-1,14(2H,9H)-dione]
17 | 126 | CCN(c1cccc2c1C/C=C/CCc1cc(C)[nH]c(=O)c1CNC2=O)C1CC2(CC(N)C2)C1 (stereo not drawn) [Example 70, (E)-10-((6-aminospiro[3.3]heptan-2-yl)(ethyl)amino)-3-methyl-5,6,15,16-tetrahydrobenzo[c]pyrido[4,3-j][1]azacyclododecine-1,14(2H,9H)-dione]
18 | 79 | CCN1CCC(N(CC)c2cccc3c2C/C=C/CCc2cc(C)[nH]c(=O)c2CNC3=O)CC1 [Example 44, (E)-10-(ethyl(1-ethylpiperidin-4-yl)amino)-3-methyl-5,6,15,16-tetrahydrobenzo[c]pyrido[4,3-j][1]azacyclododecine-1,14(2H,9H)-dione]
